We go through two compounds from patent publication US12102685B2, “Immodulator peptides covalently modified with small molecules” (priority 2020, dated 2024).

Marks after values point to notes of the source that are not given here. Peptide text beside a SMILES is read from it.

One experiment relates to rat scald model. The experiment can be described thus: Rat scald model, study effects (Table x7A). In kind it is in vivo. The conditions noted are these: burn + IM3N1 4 mg/kg sc once daily for seven days; n=3.
A further experiment concerns burn wound length. The experiment can be described thus: Post-burn wound healing study (x8A). The format is in vivo, rats. The conditions noted are these: burn-group treatment as labelled (4 mg/kg), then vehicle weeks 2-6. The protocol:
Experiment x8A. Male rats treated with 4 mg/kg nephrilin peptide IM3N1 for 2 weeks in Example 5 were subsequently treated 3× weekly (Mon-Wed-Fri) for 4 weeks with vehicle (n=12) or with 1 mg/kg IM3vlp peptide (n=12) by subcutaneous bolus injection (200 uL volume). Longitudinal wound length between the hairlines was measured at 6 weeks, and this value was corrected for nose-to-ear length and width of each animal. The mean resulting value (in arbitrary units) is shown below.

Experiment [1] can be described thus: NTA-metal-affinity ELISA (Experiment x2A). The format is binding. The protocol: The NTA-metal-affinity ELISA assay was performed using 96-well NTA-metal-coated plates readily available from commercial sources such as Qiagen (Germantown, MD). The NTA was charged with ferrous or ferric iron, zinc, copper, calcium, vanadium, ruthenium, cobalt, titanium, manganese or other metals. 400 ng of immodulator peptide IM3N1 in PBS buffer was added per plate. After incubation at room temperature for 60 minutes, excess peptide was washed off and peptide was detected by ELISA using an anti-immodulator rabbit primary antibody (A2501) and horseradish peroxidase conjugated to a secondary anti-rabbit antibody (arbitrary units)*vs EDTA control: • EDTA (no metal): 0.047±0.001 • Fe2+ (Ferrous): 0.844±0.026 (p<0.001*) • Fe3+ (Ferric): 0.848±0.011 (p<0.001*) • Zn2+ (Zinc): 0.194±0.089 (p<0.05*) • Cu2+ (Copper): 0.229±0.086 (p<0.05*)
In general terms: An ELISA detects its analyte on a solid surface through an enzyme-linked reagent.

The test system of another experiment is STING. Nature of the experiment: THP1-Dual monocyte reporter, STING readout (x4A). The format is cell-based. As to the method:
Immune modulation functions of immodulator peptides were measured using the monocyte reporter cell line THP1-Dual (Invivogen, San Diego, CA), which provides convenient readouts for STING and NF-kappa-B pathways. Optionally, succinic acid, cytokine and chemokine production were also measured. THP1-Dual cell line was obtained from Invivogen. Cells were grown in a T-75 flask in RPMI Medium containing 20% fetal bovine serum, blasticidin ([…]), zeocin ([…]) and penicillin-streptomycin at 37° C. in a humidified, 5% CO2 incubator. Cells ([…], 8,000 cells/well) were plated in a 96-well plate and incubated overnight at 37 °C in a humidified, 5% CO2 incubator. Next day, […] of compounds were added (quadruplicate wells). After 24 hour incubation with the compound, supernatants were harvested and stored at 4° C. prior to assay.
Each cell supernatant was assayed in quadruplicate. 20 uL of supernatant was used to measure NF-kappa-B (NFkB) and
STING activity using reagents QuantiBlu and QuantiLuc respectively, according to the manufacturer's recommendations (Invivogen, San Diego, CA). Succinic acid was measured by using a kit from Megazyme Inc (Cambridge, MA). Control value of activity was set to 100 in each assay. […] PAM3C=25 ng/ml PAM3CSK4 (TLR1/2 inducer); Poly(I:C)=10 ug/ml (TLR3 inducer); PAM2C=25 ng/ml PAM2CSK4 (TLR2/6 inducer); KIN14=4 uM KIN-1400 (RIG-I inducer); cytB=1 uM cytosporone B (Nur77 inducer); C-178=1 uM STING inhibitor; NFkBi=50 ug/ml NFkB inhibitor peptide; SB2021=10 uM p38MAPK inhibitor; *p<0.05, **p<0.01 vs IM3 control; #p<0.01 vs “no inducer” control; SUCC=succinic acid; nd=not done; Peptide was added to cells at 400 nM.
Peptides were added to cells at 400 nM. […]

The nature of experiment [2]: IM3 / FITC-PI(4,5)P2 binding on metal-charged NTA plates (x9C). As to the method: NTA-coated 96-well plates were charged with either 500 uM zinc chloride or 500 uM ferric chloride and washed. Immodulator peptide IM3 (100 ng/well) and FITC-PI(4,5)P2 (50 ng/well) were added, with or without 2 ug/well cold PPI, and incubated at room temperature for 60 minutes. The plate was washed and counted in a fluorometer.

Experiment [3] in a line: NTA-metal-affinity fluorescence assay, FITC-labeled IM3 (x2B a). The format is binding. The conditions noted are these: FITC-labeled IM3 1 ug/well. The protocol:
NTA-metal-affinity fluorescence assay was performed using 96-well NTA-metal-coated plates readily available from commercial sources such as Qiagen (Germantown, MD). NTA was charged with ferrous or ferric iron, zinc, copper, calcium, vanadium, ruthenium, cobalt, titanium, manganese or other metals. 400 ng of FITC-labeled immodulator peptide (or biotinylated immodulator peptide complexed to Alexa-488-labeled streptavidin) in PBS buffer was added per plate. After incubation at room temperature for 60 minutes, excess peptide was washed off and peptide was detected by measuring fluorescence (excitation 490 nm, emmission 525 nm) in a fluorometer. • (a) Using FITC-labeled IM3 peptide (1 ug/well) in the fluorescent binding assay: • EDTA-treated control: 2,251±1,186 • Ferrous iron: 170,441±11,264 (p<0.001)* • Copper: 13,644±5566 (p<0.05)* • Calcium: 48,822±11,990 (p<0.01)* • *p values are relative to EDTA-treated control • (b) Competition binding assay to ferrous iron, calcium, copper and zinc-charged NTA-coated plates using FITC-labeled IM3 peptide (0.5 uM) and 8× (4 uM) unlabelled competitor peptides IM3N1, IM3N2 (*all comparisons to PBS control are p<0.01); # fluorescent value of binding to […] was set at 100.

On to “RGVTEDYLRLETLVQKVVSKGFYKKKQCRPSKGRKRGFCW [IM3N1]”, for which the “Glycemic Control (GTT AUC)” value in the experiment on rat scald model was 69.0 ± 18.1 mg·dL·h. For the same compound, the “Kidney Function (eGFR, calculated)” value in the experiment on rat scald model is listed as 1.29 ± 0.32. Moreover, the “Lean Body Mass (DEXA)” value in the experiment on rat scald model was 328.5 ± 5.1. Moreover, in the experiment on rat scald model, the “Urinary 8-isoprostate” value is listed as 4.53 ± 1.21 ng/pg cystatin. For the same compound, in the experiment with burn wound length, the “corrected longitudinal wound length at 6 weeks” value stood at 131.3 ± 18.6 arbitrary units. The “peptide bound, ELISA” value in experiment [1] (Cu2+ (Copper)) was determined as 0.229±0.086 arbitrary units; in experiment [1] (EDTA (no metal), 400 ng peptide), 0.047±0.001 arbitrary units; in experiment [1] (Fe2+ (Ferrous)), 0.844±0.026 arbitrary units; in experiment [1] (Fe3+ (Ferric)), 0.848±0.011 arbitrary units; in experiment [1] (Zn2+ (Zinc)), 0.194±0.089 arbitrary units.

For `N=C(N)NCCC[C@H](NC(=O)CNC(=O)[C@H](CCCCN)NC(=O)[C@H](CO)NC(=O)[C@@H]1CCCN1C(=O)[C@H](CCCNC(=N)N)NC(=O)[C@H](CS)NC(=O)[C@H](CCC(N)=O)NC(=O)[C@H](CCCCN)NC(=O)[C@H](CCCCN)NC(=O)[C@H](CCCCN)NC(=O)[C@H](Cc1ccc(O)cc1)NC(=O)[C@H](Cc1ccccc1)NC(=O)CNC(=O)[C@H](CCCCN)NC(=O)[C@@H](N)CCCCN)C(=O)N[C@@H](CCCCN)C(=O)N[C@@H](CCCNC(=N)N)C(=O)NCC(=O)N[C@@H](Cc1ccccc1)C(=O)N[C@@H](CS)C(=O)N[C@@H](Cc1c[nH]c2ccccc12)C(=O)O` [IM3] (H-KKGFYKKKQCRPSKGRKRGFCW-OH; N-terminus and C-terminus assumed), the STING in the experiment with STING (peptide 400 nM + KIN1400 (= 100)) is recorded as 100; in the experiment with STING (peptide 400 nM + KIN1400 + C-178 1 uM) it was 81.1**; with STING (peptide 400 nM + KIN1400 + NFkBi 50 ug/ml), 105.0; in the experiment with STING (peptide 400 nM + KIN1400 + SB2021 10 uM) it was 75.6**; in the experiment on STING (peptide 400 nM + KIN1400 + cytB 1 uM), 87.5*; in the experiment on STING (peptide 400 nM + PAM2C (= 100)) it was 100. The STING is recorded as 62.0** with STING (peptide 400 nM + PAM2C + C-178 1 uM); 119.1* in the experiment on STING (peptide 400 nM + PAM2C + NFkBi 50 ug/ml); 18.9** in the experiment with STING (peptide 400 nM + PAM2C + SB2021 10 uM); 96.5 with STING (peptide 400 nM + PAM2C + cytB 1 uM); 566** with STING (peptide 400 nM + PAM3C + C-178 1 uM); 1294** in the experiment with STING (peptide 400 nM + PAM3C + NFkBi 50 ug/ml). The STING in the experiment with STING (peptide 400 nM + PAM3C + SB2021 10 uM) was 274**; in the experiment with STING (peptide 400 nM + PAM3C + cytB 1 uM), 1318**; in the experiment with STING (peptide 400 nM + PAM3C, control = 100) it was 1474; in the experiment on STING (peptide 400 nM, no inducer, control = 100), 91**. In addition, the “fluorescence, FITC-PI(4,5)P2” value is recorded as 78.5 ± 5.8 in experiment [2] (Ferric iron, cold PI(3)P1 2 ug/well); 100.0 ± 3.2 in experiment [2] (Ferric iron, cold PI(3,5)P2 2 ug/well); 80.1 ± 1.8 in experiment [2] (Ferric iron, no cold PPI); 0.0 ± 0.2 in experiment [2] (No metal, no cold PPI, IM3 100 ng/well); 2.2 ± 0.3 in experiment [2] (Zinc, no cold PPI). The fluorescence in experiment [3] (Calcium) was 48,822±11,990; in experiment [3] (Copper), 13,644±5566; in experiment [3] (EDTA-treated control), 2,251±1,186; in experiment [3] (Ferrous iron), 170,441±11,264.
